System: NCI-H929 complex spheroids, viability % test/control
Test: Anticancer human tumor NCI-H929 cell line growth inhibition [RAS];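 note: compound exposure lasted seven days before viability was read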
Details: for IC50: curve of first compound; for viability, T/C: stronger effect = lower value
Excerpt: RAS pathway inhibitors in Combinations in Complex Spheroids
A high-throughput screen of multi-cell type tumor spheroids was designed to identify active combinations of RAS pathway inhibitors and targeted small molecules. Complex spheroids include a stromal component modeled by human endothelial cells (HUVEC) and fibroblasts modeled by human mesenchymal stem cells (MSCs). The concentration ranges selected for each drug and investigational agent were based upon clinically achievable concentrations if the clinical Cmax of the agent was known.
Compounds. The drugs and investigational agents: abemaciclib (NSC768073), cobimetinib (NSC768068), divarasib (GDC6063, NSC841802), docetaxel (NSC628503), GDC-1971 (RLY-1971, NSC841576), gemcitabine (NSC613327), inavolisib (NSC800729), ipatasertib (NSC767898), KB-0742 (NSC834161), MRTX-1133 (NSC836407), osimertinib (NSC779217), RMC-4630 (NSC839698), RMC-6236 (NSC851965), RMC-6291 (NSC852671), Ro-3306 (NSC812927), sapanisertib (NSC764658), SN-38 (NSC673596), staurosporine (NSC755774), SY5609 (NSC837396), and tovorafenib (DAY101, NSC766906), were obtained from the National Cancer Institute (NCI) Developmental Therapeutics Program Chemical Repository. The FDA-approved anticancer drug set is available from the NCI Developmental Therapeutics Program. […] The stock solutions were prepared in dimethyl sulfoxide (DMSO, Sigma-Aldrich, St. Louis, MO, cat. D2650) at 800-fold the tested concentration and stored at -70 degrees C prior to their use. All drugs and investigational agents were tested over a range starting from a high concentration at or near the clinical Cmax and decreasing in half-log increments. If the clinical Cmax for an agent had not been determined, the highest concentration tested was 10 microM.
Cell Culture. All cells were maintained in an incubator at 37 degrees C and 5% CO2 with 95% humidity. The PDC lines were cultured according to standard operating procedures established by the NCI PDMR. All PDCs were thawed and cultured in Matrigel-coated flasks prepared with a working solution of 1X Ham's F-12 nutrient mix, without supplementation (Invitrogen, Waltham, MA, cat. 11765054), 100 U/mL penicillin-streptomycin (Invitrogen, cat. 15140122), and 2.5% Matrigel (Corning Inc., Corning, NY, cat. 354248) for the first three passages. The 362531-283-R-J2-PDC and 782815-120-R-J1-PDC lines were cultured in 6C/Colon 1B media, which includes advanced DMEM/F-12 (Thermo Fisher Scientific, cat. 12634028), 10 mM HEPES (Thermo Fisher Scientific, cat. 15630080), 1X GlutaMAX supplement (Thermo Fisher Scientific, cat. 35050061), 0.1 mg/mL primocin (InvivoGen, San Diego, CA, cat. ant-pm-2), 10% defined fetal bovine serum, heat inactivated (HyClone Laboratories Inc., Logan, UT, cat. SH30070.03HI), 50% L-WRN conditioned media (ATCC, cat. CRL-3276), 1.25 mM N-Acetyl-L-cysteine (Sigma-Aldrich, cat. A9165), 10 mM nicotinamide (Sigma-Aldrich, cat. N0636), 1X B-27 supplement (Thermo Fisher Scientific, cat. 17504044), 1X N-2 supplement (Thermo Fisher Scientific, cat. 17502048), 50 ng/mL human EGF (Thermo Fisher Scientific, cat. PHG0311), and 10 microM Y-27632 dihydrochloride (Tocris Bioscience, cat. 1254). The K12877-001-R-J1-PDC line was cultured in 6I media, which includes all 6C/Colon 1B media plus 10 ng/mL human FGF-10 (PeproTech, cat. 100-26), 1 ng/mL human FGF-2 (PeproTech, cat. 100-18B), 1 µM prostaglandin E2 (Tocris Bioscience, cat. 2296), […] hydrocortisone (Sigma-Aldrich, cat. H4001), and […] bovine insulin (Sigma-Aldrich, cat. I6634). The K86415-001-R-J1-PDC line was cultured in 6D media, which includes all 6C/Colon 1B media components minus the L-WRN conditioned media. The 485176-168-R4-J1-PDC was cultured in PANC media, which includes all 6C/Colon 1B media plus 100 ng/mL human FGF-10 (PeproTech, cat. 100-26), 500 nM SB-431542 (Selleckchem, cat. S1067), and 10 nM gastrin (Tocris Bioscience, cat. 3006). […]

[1] = second compound 0.0316 µM, first compound 0.0316 µM
[2] = second compound 0.0316 µM, first compound 0.1 µM
[3] = second compound 0.1 µM, first compound 0.0316 µM
[4] = second compound 0.1 µM, first compound 0.1 µM
[5] = second compound 0.316 µM, first compound 0.0316 µM
[6] = second compound 0.316 µM, first compound 0.1 µM
[7] = second compound 1 µM, first compound 0.0316 µM
[8] = second compound 1 µM, first compound 0.1 µM
[9] = second compound 3.16 µM, first compound 0.0316 µM
[10] = second compound 3.16 µM, first compound 0.1 µM
[11] = second compound 10 µM, first compound 0.0316 µM
[12] = second compound 10 µM, first compound 0.1 µM

**Q.** Which results are given for `CC(C)n1nc(-c2ccc3oc(N)nc3c2)c2c(N)ncnc21` + C#Cc1c(F)ccc2cc(O)cc(-c3ncc4c(N5CC6CCC(C5)N6)nc(OCC56CCCN5CC(F)C6)nc4c3F)c12?
**A.** IC50 (second compound 0.0316 µM): 61.6 nM; IC50 (second compound 0.1 µM): 61.7 nM; IC50 (second compound 0.316 µM): 61.5 nM; IC50 (second compound 1 µM): 60.2 nM; IC50 (second compound 3.16 µM): 60.1 nM; IC50 (second compound 10 µM): 44.6 nM; viability, T/C (second compound 0.0316 µM, first compound 0.000316 µM): 96.7%; viability, T/C (second compound 0.0316 µM, first compound 0.001 µM): 97.5%; viability, T/C (second compound 0.0316 µM, first compound 0.00316 µM): 103%; viability, T/C (second compound 0.0316 µM, first compound 0.01 µM): 112%; viability, T/C [1]: 119%; viability, T/C [2]: 9.44%; viability, T/C (second compound 0.1 µM, first compound 0.000316 µM): 96%; viability, T/C (second compound 0.1 µM, first compound 0.001 µM): 101%; viability, T/C (second compound 0.1 µM, first compound 0.00316 µM): 105%; viability, T/C (second compound 0.1 µM, first compound 0.01 µM): 115%; viability, T/C [3]: 118%; viability, T/C [4]: 8.74%; viability, T/C (second compound 0.316 µM, first compound 0.000316 µM): 96.7%; viability, T/C (second compound 0.316 µM, first compound 0.001 µM): 108%; viability, T/C (second compound 0.316 µM, first compound 0.00316 µM): 104%; viability, T/C (second compound 0.316 µM, first compound 0.01 µM): 113%; viability, T/C [5]: 117%; viability, T/C [6]: 7.88%; viability, T/C (second compound 1 µM, first compound 0.000316 µM): 95%; viability, T/C (second compound 1 µM, first compound 0.001 µM): 99.2%; viability, T/C (second compound 1 µM, first compound 0.00316 µM): 109%; viability, T/C (second compound 1 µM, first compound 0.01 µM): 112%; viability, T/C [7]: 117%; viability, T/C [8]: 5.23%; viability, T/C (second compound 3.16 µM, first compound 0.000316 µM): 99.5%; viability, T/C (second compound 3.16 µM, first compound 0.001 µM): 101%; viability, T/C (second compound 3.16 µM, first compound 0.00316 µM): 107%; viability, T/C (second compound 3.16 µM, first compound 0.01 µM): 111%; viability, T/C [9]: 112%; viability, T/C [10]: 5.57%; viability, T/C (second compound 10 µM, first compound 0.000316 µM): 101%; viability, T/C (second compound 10 µM, first compound 0.001 µM): 97.2%; viability, T/C (second compound 10 µM, first compound 0.00316 µM): 100%; viability, T/C (second compound 10 µM, first compound 0.01 µM): 96.6%; viability, T/C [11]: 69.5%; viability, T/C [12]: 4.27%

**Q.** For `C[C@@H](NC(=O)c1ncnc(N)c1Cl)c1ncc(C(=O)Nc2cc(C(F)(F)F)c(Cl)cn2)s1` + C#Cc1c(F)ccc2cc(O)cc(-c3ncc4c(N5CC6CCC(C5)N6)nc(OCC56CCCN5CC(F)C6)nc4c3F)c12, which IC50 (second compound 0.0316 µM) is on record?
**A.** Its IC50 is greater than 10000 nM.

**Q.** What about the IC50 (second compound 0.1 µM) of the same compound?
**A.** The IC50 was greater than 10000 nM.

**Q.** What about the IC50 (second compound 0.316 µM) of the same compound?
**A.** The IC50 was greater than 10000 nM.

**Q.** And the IC50 (second compound 1 µM)?
**A.** The IC50 was greater than 10000 nM.

**Q.** What about the IC50 (second compound 3.16 µM) of the same compound?
**A.** Its IC50 is greater than 10000 nM.

**Q.** And the IC50 (second compound 10 µM)?
**A.** Its IC50 is greater than 10000 nM.

**Q.** What about the viability, T/C [1] of the same compound?
**A.** The viability, T/C was 91.7%.

**Q.** And the viability, T/C [2]?
**A.** Its viability, T/C is 89%.

**Q.** What about the viability, T/C (second compound 0.0316 µM, first compound 0.316 µM) of the same compound?
**A.** Its viability, T/C is 93.6%.

**Q.** And the viability, T/C (second compound 0.0316 µM, first compound 1 µM)?
**A.** The viability, T/C was 79.9%.

**Q.** What about the viability, T/C (second compound 0.0316 µM, first compound 3.16 µM) of the same compound?
**A.** The viability, T/C was 92.2%.

**Q.** What about the viability, T/C (second compound 0.0316 µM, first compound 10 µM) of the same compound?
**A.** Its viability, T/C is 108%.

**Q.** And the viability, T/C [3]?
**A.** Its viability, T/C is 96.2%.

**Q.** What about the viability, T/C [4] of the same compound?
**A.** Its viability, T/C is 88.3%.

**Q.** What about the viability, T/C (second compound 0.1 µM, first compound 0.316 µM) of the same compound?
**A.** The viability, T/C was 89.4%.

**Q.** What about the viability, T/C (second compound 0.1 µM, first compound 1 µM) of the same compound?
**A.** The viability, T/C was 80.7%.

**Q.** And the viability, T/C (second compound 0.1 µM, first compound 3.16 µM)?
**A.** The viability, T/C was 95.1%.

**Q.** And the viability, T/C (second compound 0.1 µM, first compound 10 µM)?
**A.** Its viability, T/C is 110%.

**Q.** And the viability, T/C [5]?
**A.** The viability, T/C was 95.3%.

**Q.** And the viability, T/C [6]?
**A.** The viability, T/C was 94%.

**Q.** What about the viability, T/C (second compound 0.316 µM, first compound 0.316 µM) of the same compound?
**A.** Its viability, T/C is 91.5%.

**Q.** What about the viability, T/C (second compound 0.316 µM, first compound 1 µM) of the same compound?
**A.** The viability, T/C was 85.9%.

**Q.** And the viability, T/C (second compound 0.316 µM, first compound 3.16 µM)?
**A.** Its viability, T/C is 96.4%.

**Q.** What about the viability, T/C (second compound 0.316 µM, first compound 10 µM) of the same compound?
**A.** Its viability, T/C is 106%.

**Q.** What about the viability, T/C [7] of the same compound?
**A.** Its viability, T/C is 94.9%.

**Q.** And the viability, T/C [8]?
**A.** The viability, T/C was 91.2%.

**Q.** And the viability, T/C (second compound 1 µM, first compound 0.316 µM)?
**A.** The viability, T/C was 94.8%.

**Q.** And the viability, T/C (second compound 1 µM, first compound 1 µM)?
**A.** Its viability, T/C is 84.3%.

**Q.** And the viability, T/C (second compound 1 µM, first compound 3.16 µM)?
**A.** Its viability, T/C is 84.1%.

**Q.** And the viability, T/C (second compound 1 µM, first compound 10 µM)?
**A.** Its viability, T/C is 109%.

**Q.** And the viability, T/C [9]?
**A.** Its viability, T/C is 89.4%.

**Q.** What about the viability, T/C [10] of the same compound?
**A.** Its viability, T/C is 94.9%.

**Q.** And the viability, T/C (second compound 3.16 µM, first compound 0.316 µM)?
**A.** Its viability, T/C is 82.6%.

**Q.** And the viability, T/C (second compound 3.16 µM, first compound 1 µM)?
**A.** The viability, T/C was 90.7%.

**Q.** What about the viability, T/C (second compound 3.16 µM, first compound 3.16 µM) of the same compound?
**A.** Its viability, T/C is 89.8%.

**Q.** What about the viability, T/C (second compound 3.16 µM, first compound 10 µM) of the same compound?
**A.** The viability, T/C was 111%.

**Q.** And the viability, T/C [11]?
**A.** The viability, T/C was 77.3%.

**Q.** What about the viability, T/C [12] of the same compound?
**A.** The viability, T/C was 59.4%.

**Q.** What about the viability, T/C (second compound 10 µM, first compound 0.316 µM) of the same compound?
**A.** The viability, T/C was 79.2%.

**Q.** And the viability, T/C (second compound 10 µM, first compound 1 µM)?
**A.** The viability, T/C was 74.1%.

**Q.** And the viability, T/C (second compound 10 µM, first compound 3.16 µM)?
**A.** Its viability, T/C is 92.1%.

**Q.** What about the viability, T/C (second compound 10 µM, first compound 10 µM) of the same compound?
**A.** Its viability, T/C is 101%.

From PubChem BioAssay AID2060884 (Molecular Pharmacology Branch, DTP, NCI, 2025)
